Assay results from ChEMBL document CHEMBL1149035, “Verongamine, a novel bromotyrosine-derived histamine H3-antagonist from the marine sponge Verongula gigantea” (J Nat Prod, 1994).
Activity calls are given as the source filed them. The rule behind the calls is not given here.

Key:
[1] = target: Histamine H3 receptor (Cavia porcellus) (UniProt Q9JI35); assay: Antagonist activity at guinea pig histamine H3 receptor assessed as blockade of (R)-alpha-methyl histamine-induced inhibition of EFS-stimulated guinea pig ileum contraction at 1 ug/mL; assay type: functional, tissue-based
[2] = target: Histamine H3 receptor (Cavia porcellus) (UniProt Q9JI35); assay: Antagonist activity at guinea pig histamine H3 receptor assessed as blockade of clonidine-induced inhibition of EFS-stimulated guinea pig ileum contraction at 1 ug/mL; assay type: functional, tissue-based
[3] = target: Histamine H3 receptor (Cavia porcellus, UniProt Q9JI35); assay: Binding affinity to histamine H3 receptor in guinea pig brain membrane; assay type: cell membranes
Sequence of Histamine H3 receptor (Q9JI35 whole entry): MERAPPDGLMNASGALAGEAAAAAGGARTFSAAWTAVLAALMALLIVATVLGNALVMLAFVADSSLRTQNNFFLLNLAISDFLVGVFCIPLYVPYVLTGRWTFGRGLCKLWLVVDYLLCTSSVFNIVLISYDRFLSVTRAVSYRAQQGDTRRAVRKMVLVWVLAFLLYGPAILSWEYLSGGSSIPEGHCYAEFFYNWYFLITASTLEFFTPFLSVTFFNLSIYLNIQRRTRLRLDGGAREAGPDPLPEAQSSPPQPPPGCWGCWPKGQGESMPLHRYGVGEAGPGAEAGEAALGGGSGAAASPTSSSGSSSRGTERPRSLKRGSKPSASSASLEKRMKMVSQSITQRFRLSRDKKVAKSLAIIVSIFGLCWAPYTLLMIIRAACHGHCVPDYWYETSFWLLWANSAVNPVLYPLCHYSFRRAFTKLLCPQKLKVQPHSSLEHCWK

Sequence of Histamine H3 receptor (Cavia porcellus) (Q9JI35 whole entry): as above

Activity [1] | Activity [2] | IC50 [3] [nM] | Compound
inactive |  |  | COC1=C(Br)C(O)C2(C=C1Br)CC(C(=O)NCCc1c[nH]cn1)=NO2 (centres undefined)
Active | inactive | 500 | COc1ccc(C/C(=N\O)C(=O)NCCc2c[nH]cn2)cc1Br [VERONGAMINE]
